Measured values taken from paper PMC11946679 (Toxics, 2025).

Tested on: human peripheral blood lymphocytes
Experiment: CBMN cytome assay: micronuclei, nuclear buds, nucleoplasmic bridges
Conditions: 3 h
[1] = 1× + IRI 9.0 mg/L, propolis 1.36 mg/L, galangin 0.02 mg/L
[2] = 1× alone, propolis 1.36 mg/L, galangin 0.02 mg/L
[3] = 5× + IRI 9.0 mg/L, propolis 6.8 mg/L, galangin […]
[4] = 5× alone, propolis 6.8 mg/L, galangin […]
[5] = 10× + IRI 9.0 mg/L, propolis 13.6 mg/L, galangin 0.22 mg/L
[6] = 10× alone, propolis 13.6 mg/L, galangin 0.22 mg/L

Method: The CBMN assay was performed in line with standard protocols [8, 23].
To collect the blood sample, lithium heparin-coated tubes were used (BD vacutainer® with LH 170 I.U., Becton Dickinson: BD-Plymouth PL6 78P, UK).
There were 15 experimental groups altogether. The same experimental design was applied in two independent trials, each of which had two replicate cultures per experimental group; therefore, four replicate cultures for every single experimental group were established.
To induce cell division prior to exposure to the test chemicals, lymphocytes were stimulated with the mitogen phytohemagglutinin (PHA). Cultures were kept in a humidified atmosphere of 5% CO2 at 37 °C.
They started 41 h after PHA stimulation and lasted for 3 h at 37 °C.
Upon completion of exposure, lymphocyte cultures were centrifuged at 100× g. […] This procedure was timed for the 44th hour of lymphocyte cultivation, which represents a critical point for adding of cytoB to hinder cytokinesis and obtain binucleated cells. All treated and control cultures were further maintained at 37 °C until the end of the 72nd hour of cultivation, according to the above-mentioned standard protocols.
The first step in the preparation of microscopic slides was harvesting of cells by centrifugation (100× g), followed by treatment with 0.075 mol/L potassium chloride and succeeded by centrifugation. The sediments of cells were repeatedly fixed with methanol/acetic acid (3:1 v/v) followed by centrifugation. The final lymphocyte suspension was pipetted onto clean microscope slides. For staining, 5% aqueous solution of Giemsa dye was used. Slides were screened using a light microscope at 1000× magnification. For morphological discrimination of micronuclei (MNi), nuclear buds (NBs), nucleoplasmic bridges (NPBs) and cells in apoptosis or necrosis, the criteria by Fenech et al. [25] and Fenech [23] were applied. To determine their frequencies, per experimental point, a total of 4 × 1000 binucleated (BN) cells were scored.
This value was first used to estimate the number of MNi required to reach a decrease and an increase considered significant at a 5% significance level.

Structure (SMILES): O=c1c(O)c(-c2ccccc2)oc2cc(O)cc(O)c12 [Galangin]
- Distribution of BNMN Cells with 1 MN [1]: 45 c,p1,p5,p10,g1,g5,g10,p1+iri, p5+iri, p10+iri
- Distribution of BNMN Cells with 2 MN [1]: 1
- Distribution of BNMN Cells with 3 MN [1]: 0
- Distribution of BNMN Cells with 4 MN [1]: 0
- Distribution of BNNB Cells with 1 NB [1]: 33 c,p1,p5, p10,g1,g5,g10, p1+iri, p10+iri
- Distribution of BNNB Cells with 2 NB [1]: 2
- Distribution of BNNPB Cells with 1 NPB [1]: 0
- Distribution of BNNPB Cells with 2 NPB [1]: 0
- Micronuclei (MNi) Mean (BNMN)1000 ± SD [1]: 11.50 ± 3.70 c,p1,p5,p10,g1,g5, g10,p1+iri, p5+iri, p10+iri
- Micronuclei (MNi) Mean (MNi)1000 ± SD [1]: 11.75 ± 4.11 c,p1,p5,p10,g1,g5,g10, p1+iri
- Micronuclei (MNi) Total (BNMN)4000 [1]: 46 c,p1,p5,p10,g1,g5,g10, p1+iri, p5+iri, p10+iri
- Micronuclei (MNi) Total (MNi)4000 [1]: 47 c,p1,p5,p10,g1,g5, g10,p1+iri
- Nuclear Buds (NBs) Mean (BNNB)1000 ± SD [1]: 8.75 ± 0.96 c,p1,p5,p10, g1,g5,g10, p1+iri,p5+iri, p10+iri
- Nuclear Buds (NBs) Mean (NBs)1000 ± SD [1]: 9.25 ± 1.50 c,p1,p5,p10,g1,g5,g10, p1+iri,p5+iri, p10+iri
- Nuclear Buds (NBs) Total (BNNB)4000 [1]: 35 c,p1,p5,p10, g1,g5,g10, p1+iri,p5+iri,p10+iri
- Nuclear Buds (NBs) Total (NBs)4000 [1]: 37 c,p1,p5, p10,g1,g5, g10, p1+iri, p5+iri, p10+iri
- Nucleoplasmic Bridges (NPBs) Mean (BNNPB)1000 ± SD [1]: 0
- Nucleoplasmic Bridges (NPBs) Mean (NPBs)1000 ± SD [1]: 0
- Nucleoplasmic Bridges (NPBs) Total (BNNPB)4000 [1]: 0
- Nucleoplasmic Bridges (NPBs) Total (NPBs)4000 [1]: 0
- Micronuclei (MNi) Mean (MNi)1000 ± SD (1× + IRI 9.0 mg/L, propolis 1.36 mg/L, galangin 0.02 mg/L, listed as galangin): 11.75
- Distribution of BNMN Cells with 1 MN [2]: 8
- Distribution of BNMN Cells with 2 MN [2]: 0
- Distribution of BNMN Cells with 3 MN [2]: 0
- Distribution of BNMN Cells with 4 MN [2]: 0
- Distribution of BNNB Cells with 1 NB [2]: 7
- Distribution of BNNB Cells with 2 NB [2]: 0
- Distribution of BNNPB Cells with 1 NPB [2]: 0
- Distribution of BNNPB Cells with 2 NPB [2]: 0
- Micronuclei (MNi) Mean (BNMN)1000 ± SD [2]: 2.00 ± 0.82
- Micronuclei (MNi) Mean (MNi)1000 ± SD [2]: 2.00 ± 0.82
- Micronuclei (MNi) Total (BNMN)4000 [2]: 8
- Micronuclei (MNi) Total (MNi)4000 [2]: 8
- Nuclear Buds (NBs) Mean (BNNB)1000 ± SD [2]: 1.75 ± 0.50
- Nuclear Buds (NBs) Mean (NBs)1000 ± SD [2]: 1.75 ± 0.50
- Nuclear Buds (NBs) Total (BNNB)4000 [2]: 7
- Nuclear Buds (NBs) Total (NBs)4000 [2]: 7
- Nucleoplasmic Bridges (NPBs) Mean (BNNPB)1000 ± SD [2]: 0
- Nucleoplasmic Bridges (NPBs) Mean (NPBs)1000 ± SD [2]: 0
- Nucleoplasmic Bridges (NPBs) Total (BNNPB)4000 [2]: 0
- Nucleoplasmic Bridges (NPBs) Total (NPBs)4000 [2]: 0
- Micronuclei (MNi) Mean (MNi)1000 ± SD (1× alone, propolis 1.36 mg/L, galangin 0.02 mg/L, listed as galangin): 2.00
- Distribution of BNMN Cells with 1 MN [3]: 43 c,p1,p5, p10,g1,g5, g10,p1+iri, p5+iri, p10+iri
- Distribution of BNMN Cells with 2 MN [3]: 1
- Distribution of BNMN Cells with 3 MN [3]: 0
- Distribution of BNMN Cells with 4 MN [3]: 0
- Distribution of BNNB Cells with 1 NB [3]: 32 c,p1,p5, p10,g1, g5,g10, p1+iri, p10+iri
- Distribution of BNNB Cells with 2 NB [3]: 0
- Distribution of BNNPB Cells with 1 NPB [3]: 0
- Distribution of BNNPB Cells with 2 NPB [3]: 0
- Micronuclei (MNi) Mean (BNMN)1000 ± SD [3]: 11.00 ± 0.82 c,p1,p5,p10,g1,g5, g10,p1+iri, p5+iri
- Micronuclei (MNi) Mean (MNi)1000 ± SD [3]: 11.25 ± 0.96 c,p1,p5,p10,g1,g5,g10, p1+iri
- Micronuclei (MNi) Total (BNMN)4000 [3]: 44 c,p1,p5,p10,g1,g5,g10, p1+iri, p5+iri
- Micronuclei (MNi) Total (MNi)4000 [3]: 45 c,p1,p5,p10,g1,g5, g10,p1+iri
- Nuclear Buds (NBs) Mean (BNNB)1000 ± SD [3]: 8.00 ± 1.41 c,p1,p5,p10, g1,g5,g10, p1+iri,p10+iri
- Nuclear Buds (NBs) Mean (NBs)1000 ± SD [3]: 8.00 ± 1.41 c,p1,p5,p10,g1,g5,g10, p1+iri,p10+iri
- Nuclear Buds (NBs) Total (BNNB)4000 [3]: 32 c,p1,p5,p10, g1,g5,g10, p1+iri, p10+iri
- Nuclear Buds (NBs) Total (NBs)4000 [3]: 32 c,p1,p5, p10,g1,g5, g10, p1+iri, p10+iri
- Nucleoplasmic Bridges (NPBs) Mean (BNNPB)1000 ± SD [3]: 0
- Nucleoplasmic Bridges (NPBs) Mean (NPBs)1000 ± SD [3]: 0
- Nucleoplasmic Bridges (NPBs) Total (BNNPB)4000 [3]: 0
- Nucleoplasmic Bridges (NPBs) Total (NPBs)4000 [3]: 0
- Micronuclei (MNi) Mean (MNi)1000 ± SD (5× + IRI 9.0 mg/L, propolis 6.8 mg/L, galangin […], listed as galangin): 11.25
- Distribution of BNMN Cells with 1 MN [4]: 9
- Distribution of BNMN Cells with 2 MN [4]: 0
- Distribution of BNMN Cells with 3 MN [4]: 0
- Distribution of BNMN Cells with 4 MN [4]: 0
- Distribution of BNNB Cells with 1 NB [4]: 9
- Distribution of BNNB Cells with 2 NB [4]: 0
- Distribution of BNNPB Cells with 1 NPB [4]: 0
- Distribution of BNNPB Cells with 2 NPB [4]: 0
- Micronuclei (MNi) Mean (BNMN)1000 ± SD [4]: 2.25 ± 0.50
- Micronuclei (MNi) Mean (MNi)1000 ± SD [4]: 2.25 ± 0.50
- Micronuclei (MNi) Total (BNMN)4000 [4]: 9
- Micronuclei (MNi) Total (MNi)4000 [4]: 9
- Nuclear Buds (NBs) Mean (BNNB)1000 ± SD [4]: 2.25 ± 0.96
- Nuclear Buds (NBs) Mean (NBs)1000 ± SD [4]: 2.25 ± 0.96
- Nuclear Buds (NBs) Total (BNNB)4000 [4]: 9
- Nuclear Buds (NBs) Total (NBs)4000 [4]: 9
- Nucleoplasmic Bridges (NPBs) Mean (BNNPB)1000 ± SD [4]: 0
- Nucleoplasmic Bridges (NPBs) Mean (NPBs)1000 ± SD [4]: 0
- Nucleoplasmic Bridges (NPBs) Total (BNNPB)4000 [4]: 0
- Nucleoplasmic Bridges (NPBs) Total (NPBs)4000 [4]: 0
- Micronuclei (MNi) Mean (MNi)1000 ± SD (5× alone, propolis 6.8 mg/L, galangin […], listed as galangin): 2.25
- Distribution of BNMN Cells with 1 MN [5]: 44 c,p1,p5, p10,g1,g5, g10,p1+iri, p5+iri, p10+iri
- Distribution of BNMN Cells with 2 MN [5]: 5
- Distribution of BNMN Cells with 3 MN [5]: 0
- Distribution of BNMN Cells with 4 MN [5]: 0
- Distribution of BNNB Cells with 1 NB [5]: 30 c,p1,p5, p10,g1,g5,g10, p1+iri
- Distribution of BNNB Cells with 2 NB [5]: 0
- Distribution of BNNPB Cells with 1 NPB [5]: 0
- Distribution of BNNPB Cells with 2 NPB [5]: 0
- Micronuclei (MNi) Mean (BNMN)1000 ± SD [5]: 12.25 ± 0.82 c,p1,p5,p10,g1,g5, g10,p1+iri, p5+iri, p10+iri
- Micronuclei (MNi) Mean (MNi)1000 ± SD [5]: 13.50 ± 1.29 c,p1,p5,p10,g1,g5,g10, p1+iri, p5+iri, p10+iri
- Micronuclei (MNi) Total (BNMN)4000 [5]: 49 c,p1,p5,p10,g1,g5,g10, p1+iri, p5+iri, p10+iri
- Micronuclei (MNi) Total (MNi)4000 [5]: 54 c,p1,p5,p10,g1,g5, g10,p1+iri, p5+iri, p10+iri
- Nuclear Buds (NBs) Mean (BNNB)1000 ± SD [5]: 7.50 ± 1.29 c,p1,p5,p10, g1,g5,g10, p1+iri
- Nuclear Buds (NBs) Mean (NBs)1000 ± SD [5]: 7.50 ± 1.29 c,p1,p5,p10,g1,g5,g10,p1+iri
- Nuclear Buds (NBs) Total (BNNB)4000 [5]: 30 c,p1,p5,p10, g1,g5,g10, p1+iri
- Nuclear Buds (NBs) Total (NBs)4000 [5]: 30 c,p1,p5, p10,g1,g5, g10,p1+iri
- Nucleoplasmic Bridges (NPBs) Mean (BNNPB)1000 ± SD [5]: 0
- Nucleoplasmic Bridges (NPBs) Mean (NPBs)1000 ± SD [5]: 0
- Nucleoplasmic Bridges (NPBs) Total (BNNPB)4000 [5]: 0
- Nucleoplasmic Bridges (NPBs) Total (NPBs)4000 [5]: 0
- Micronuclei (MNi) Mean (MNi)1000 ± SD (10× + IRI 9.0 mg/L, propolis 13.6 mg/L, galangin 0.22 mg/L, listed as galangin): 13.50
- Distribution of BNMN Cells with 1 MN [6]: 7
- Distribution of BNMN Cells with 2 MN [6]: 0
- Distribution of BNMN Cells with 3 MN [6]: 0
- Distribution of BNMN Cells with 4 MN [6]: 0
- Distribution of BNNB Cells with 1 NB [6]: 9
- Distribution of BNNB Cells with 2 NB [6]: 0
- Distribution of BNNPB Cells with 1 NPB [6]: 0
- Distribution of BNNPB Cells with 2 NPB [6]: 0
- Micronuclei (MNi) Mean (BNMN)1000 ± SD [6]: 1.75 ± 0.50
- Micronuclei (MNi) Mean (MNi)1000 ± SD [6]: 1.75 ± 0.50
- Micronuclei (MNi) Total (BNMN)4000 [6]: 7
- Micronuclei (MNi) Total (MNi)4000 [6]: 7
- Nuclear Buds (NBs) Mean (BNNB)1000 ± SD [6]: 2.25 ± 0.50
- Nuclear Buds (NBs) Mean (NBs)1000 ± SD [6]: 2.25 ± 0.50
- Nuclear Buds (NBs) Total (BNNB)4000 [6]: 9
- Nuclear Buds (NBs) Total (NBs)4000 [6]: 9
- Nucleoplasmic Bridges (NPBs) Mean (BNNPB)1000 ± SD [6]: 0
- Nucleoplasmic Bridges (NPBs) Mean (NPBs)1000 ± SD [6]: 0
- Nucleoplasmic Bridges (NPBs) Total (BNNPB)4000 [6]: 0
- Nucleoplasmic Bridges (NPBs) Total (NPBs)4000 [6]: 0
- Micronuclei (MNi) Mean (MNi)1000 ± SD (10× alone, propolis 13.6 mg/L, galangin 0.22 mg/L, listed as galangin): 1.75
